Results on 17 compounds are retold here after US8106047B2, “Triazolophthalazines” (NYCOMED GmbH, priority 2005, dated 2012).

Each structure is given as a SMILES string.

The subject of one data set is HUVEC monolayers. Briefly: Inhibition of macromolecule (HRP) permeability of thrombin-stimulated HUVEC monolayers. Particulars: Homo sapiens, 1 h; HUVEC on Transwells, 1 μM RP73401, 10 μM Motapizone, 1 mM SNP or 100 nM ANP, 1 U/ml thrombin, HRP passage after 60 min; read-out: Inhibition of SNP- or ANP-induced permeability, −log IC50 [mol/l] (converted). It counts as cell-based, human. The protocol: Method to Assess Inhibition of Macromolecule Permeability of HUVEC Monolayers
The procedure to measure macromolecule permeability of endothelial cell monolayers followed the method described by Langeler & van Hinsbergh (1988) with modifications. Human umbilical vein endothelial cells were isolated from umbilical cords according to standard procedures (Jaffe et al. 1973) and cultured in endothelial cell basal medium (EBM) supplemented with 2% FCS, 0.5 ng/ml VEGF, 10 ng/ml bFGF, 5 ng/ml EGF, 20 ng/ml Long R3 IGF-1, 0.2 μg/ml hydrocortisone, 1 μg/ml ascorbic acid, 22.5 μg/ml heparin, 50 μg/ml gentamicin, 50 ng/ml amphotericin B (EGM2 purchased from Promocell GmbH, Heidelberg, Germany). At confluency, cells were trypsinized and replated at 73000 cells per well on 3 μm polycarbonate filter Transwell inserts (Costar GmbH, Bodenheim, Germany) precoated with 10 μg cm^2−1 Fibronectin (Sigma, Taufkirchen, Germany). HUVECs were cultured in EGM2 (100 μl in the upper wells and 600 μl in the lower wells) over four days prior the experiments and medium was changed every other day. At the day of the experiment culture medium was replaced by M199 with 1% human serum albumin. Endothelial cells were preincubated with cyclic nucleotide modifiers (the selective PDE3 inhibitor motapizone, the selective PDE4 inhibitor RP73401, the cGMP generators ANP or SNP and PDE2 inhibitors) for 15 min. HUVECs were then stimulated with Thrombin (1 U ml^−1) (Sigma, Taufkichen, Germany) and horsh radish peroxidase (5 μg/ml) (Sigma, Taufkirchen, Germany) as the macromolecule marker protein was added to the upper wells. Following 1 h incubation time Transwells were removed and the activity of horsh radish peroxidase that penetrated the endothelial cell monolayer was measured in the lower wells with the 3,3′,5,5′-tetramethylbenzidine liquid substrate system from Sigma (Taufkirchen, Germany).
In parallel, compounds according to the invention can inhibit Thrombin-induced permeability of HUVEC monolayers for horsh radish peroxidase (HRP) as a macromolecule marker. […] The concentration-dependent inhibition of HRP permeability at different concentrations was assessed from the percent inhibition in the presence and absence of the PDE2 inhibitors and in the presence of 1 μM RP73401, 10 μM Motapizone and 100 nM ANP.
Inhibition of SNP- or ANP-Induced Permeability of HUVEC Monolayers:
HUVEC cells on 3 μm polycarbonate filters (Transwells) were preincubated with 1 μM RP73401 (to block PDE4) and 10 μM Motapizone (to block PDE3), 1 mM SNP or 100 nM ANP and test sample over 15 min and then stimulated with 1 U/ml thrombin. HRP passage into the lower wells was assessed after 60 min.

Compound `COc1ccc(-c2nnc3c4ccccc4c(Nc4ccc(NS(=O)(=O)N5CCOCC5)cc4)nn23)cc1` [Compound 6, Morpholine-4-sulfonic acid {4-[3-(4-methoxy-phenyl)-[1,2,4]triazolo[3,4-a]phthalazin-6-ylamino]-phenyl}-amide] showed a melting point of 266 to 270 °C. Moreover, the IC50 in the data set with HUVEC monolayers is 0.501 to 126 nM.
For `COc1ccc(-c2nnc3c4ccccc4c(Nc4cccc(NS(=O)(=O)c5ccc(C)cc5)c4)nn23)cc1` [Compound 9, N-{3-[3-(4-Methoxy-phenyl)-[1,2,4]triazolo[3,4-a]phthalazin-6-ylamino]-phenyl}-4-methyl-benzenesulfonamide] the same measures were 336 to 346 °C (dec.) and 0.501 to 126 nM.
As to `COc1ccc(-c2nnc3c4ccccc4c(Nc4cccc(NS(=O)(=O)c5ccc(OC)cc5)c4)nn23)cc1` [Compound 10, 4-Methoxy-N-{3-[3-(4-methoxy-phenyl)-[1,2,4]triazolo[3,4-a]phthalazin-6-ylamino]-phenyl}-benzenesulfonamide], the melting point is 328 to 331 °C (dec.). In the data set on HUVEC monolayers, the IC50 is 0.501 to 126 nM.
For `COc1ccc(-c2nnc3c4ccccc4c(Nc4cccc(NS(=O)(=O)c5cccc(OC)c5)c4)nn23)cc1` [Compound 14, 3-Methoxy-N-{3-[3-(4-methoxy-phenyl)-[1,2,4]triazolo[3,4-a]phthalazin-6-ylamino]-phenyl}-benzenesulfonamide] the same measures were 328 to 332 °C and 0.501 to 126 nM.
The compound `COc1ccc(-c2nnc3c4ccccc4c(Nc4cccc(NS(=O)(=O)Cc5ccccc5)c4)nn23)cc1` [Compound 15, N-{3-[3-(4-Methoxy-phenyl)-[1,2,4]triazolo[3,4-a]phthalazin-6-ylamino]-phenyl}-1-phenyl-methanesulfonamide] gave a melting point of 289 to 292 °C. Further, the IC50 in the data set on HUVEC monolayers is 0.501 to 126 nM.
For `COc1ccc(-c2nnc3c4ccccc4c(Nc4cccc(NS(=O)(=O)c5cccs5)c4)nn23)cc1` [Compound 17, Thiophene-2-sulfonic acid {3-[3-(4-methoxy-phenyl)-[1,2,4]triazolo[3,4-a]phthalazin-6-ylamino]-phenyl}-amide], the melting point lay within 327 to 331 °C. Also, the IC50 in the data set on HUVEC monolayers is 0.501 to 126 nM.
Regarding `COc1ccc(-c2nnc3c4ccccc4c(Nc4cccc(NS(C)(=O)=O)c4)nn23)cc1` [Compound 19, N-{3-[3-(4-Methoxyphenyl)-[1,2,4]triazolo[3,4-a]phthalazin-6-ylamino]-phenyl}-methanesulfonamide], the melting point came out at 304.9 °C. In addition, the IC50 in the data set with HUVEC monolayers was 0.501 to 126 nM.
In the same order, the values of `COc1ccc(-c2nnc3c4ccccc4c(Nc4ccc(S(=O)(=O)Nc5ncccn5)cc4)nn23)cc1` [Compound 21, 4-[3-(4-Methoxyphenyl)-[1,2,4]triazolo[3,4-a]phthalazin-6-ylamino]-N-pyrimidin-2-yl-benzenesulfonamide] are over 350 °C and 0.501 to 126 nM.
In the same order, the values of `COc1ccc(-c2nnc3c4ccccc4c(Nc4ccc(S(=O)(=O)N5CCOCC5)cc4)nn23)cc1` [Compound 22, [3-(4-Methoxyphenyl)-[1,2,4]triazolo[3,4-a]phthalazin-6-yl]-[4-(morpholine-4-sulfonyl)-phenyl]-amine] are 330 °C and 0.501 to 126 nM.
The compound `COc1ccc(-c2nnc3c4ccccc4c(Nc4cccc(S(=O)(=O)N5CCOCC5)c4)nn23)cc1` [Compound 25, [3-(4-Methoxyphenyl)-[1,2,4]triazolo[3,4-a]phthalazin-6-yl]-[3-(morpholine-4-sulfonyl)-phenyl]-amine] displayed a melting point of 265.4 °C. Moreover, the IC50 in the data set with HUVEC monolayers is 0.501 to 126 nM.
Regarding `CN(C)c1ccccc1-c1nnc2c3ccccc3c(Nc3cccc(NS(=O)(=O)N(C)C)c3)nn12` [Compound 26], the melting point was 235 to 239 °C. In addition, in the data set with HUVEC monolayers, the IC50 was 0.501 to 126 nM.
For `CN(C)S(=O)(=O)c1cccc(Nc2nn3c(-c4ccc(Br)cc4)nnc3c3ccccc23)c1` [Compound 28, [3-(N,N-dimethylsulfamoyl)-phenyl]-[3-(4-bromo-phenyl)-[1,2,4]triazolo[3,4-a]phthalazin-6-yl]-amine], the melting point lay in the range of 290 to 293 °C. In addition, the IC50 in the data set on HUVEC monolayers was 0.501 to 126 nM.
Take `COc1ccc(-c2nnc3c4ccccc4c(Nc4cccc(S(=O)(=O)N5CCCC5)c4)nn23)cc1` [Compound 29, [3-(4-Methoxy-phenyl)-[1,2,4]triazolo[3,4-a]phthalazin-6-yl]-[3-(pyrrolidine-1-sulfonyl)-phenyl]-amine]: the melting point lay within 292 to 295 °C. Further, in the data set on HUVEC monolayers, the IC50 was 0.501 to 126 nM.
For `COc1ccc(-c2nnc3c4ccccc4c(Nc4cccc(S(=O)(=O)N5CCCCC5)c4)nn23)cc1` [Compound 30, [3-(4-Methoxy-phenyl)-[1,2,4]triazolo[3,4-a]phthalazin-6-yl]-[3-(piperidine-1-sulfonyl)-phenyl]-amine] the same measures were 275 to 280 °C and 0.501 to 126 nM.
For `CN(C)S(=O)(=O)Nc1cccc(Nc2nn3c(-c4ccccc4F)nnc3c3ccccc23)c1` [Compound 31], the melting point fell in the range of 252 to 256 °C. Further, the IC50 with HUVEC monolayers is 0.501 to 126 nM.
For `COc1ccccc1-c1nnc2c3ccccc3c(Nc3cccc(NS(=O)(=O)N(C)C)c3)nn12` [Compound 32], the melting point fell in the range of 229 to 233 °C. Moreover, the IC50 in the data set on HUVEC monolayers is 0.501 to 126 nM.
In the same order, the values of `COc1ccc(-c2nnc3c4ccccc4c(Nc4cccc(NS(=O)(=O)N5CCOCC5)c4)nn23)cc1` [Compound 34, Morpholine-4-sulfonic acid {3-[3-(4-methoxy-phenyl)-[1,2,4]triazolo[3,4-a]phthalazin-6-ylamino]-phenyl}-amide] are 264 °C (dec.) and 0.501 to 126 nM.
